# Laboratory results taken from patent US11021686B2, “In vitro production of cholangiocytes” (CAMBRIDGE ENTERPRISE LIMITED, priority 2015, dated 2021).
# Entries after “also recorded” stand apart in the source; their conditions may differ.
# What was measured:
# [1] = system: CLC organoids; test: Measurement of intracellular calcium levels (Fluo-4) in CLC organoids; format: cell-based, human; conditions: 1 μM Acetylcholine or 30 μM ATP
# Description: Intracellular calcium signaling, regulated by stimuli such as acetylcholine and ATP constitutes a key second messenger for cholangiocytes (18). CLC organoids were incubated with 25 μM of the calcium indicator Fluo-4 AM (Life technologies) for 60 minutes at 37° C. and washed 3 times with William's E medium. Fresh William's E medium with supplements was added following the third wash. The organoids were stimulated with 1 μM of Acetylcholine (Sigma-Aldrich) or 30 μM of ATP (Sigma-Aldrich), while time lapse images were taken. Each measurement was repeated in triplicate. To calculate the number of cells responding to stimulation, the number of cells loaded with Fluo-4 AM was counted by 2 different researchers prior to the start of the experiment. Following stimulation with ATP or acetylcholine the number of responding cells (increase in fluorescence) was also counted and responsiveness was expressed as the ratio of responding cells over the total number of cells loaded with Fluo-4 AM. The statistical approach for smoothing the data and plotting bands for the confidence limits please see ‘Statistical analyses’.
# [2] = system: hESC-Chol; conditions: Dianat et al (6); cited from earlier work
structure (smiles),measurement,setting,value
Nc1ncnc2c1ncn2[C@@H]1O[C@H](COP(=O)(O)OP(=O)(O)OP(=O)(O)O)[C@@H](O)[C@H]1O [ATP],intracellular calcium levels,[1]; CLC organoids loaded with Fluo-4,increasing intracellular calcium levels; also recorded: an increase in intracellular calcium levels
same,responsiveness (responding cells over total cells loaded with Fluo-4 AM),[1]; CLCs,95%
same,responsiveness of hESC-Chol,[2],70%
